Test results: publication PMC7377239, “Cardiovascular Effects of Polychlorinated Biphenyls and Their Major Metabolites” (Environmental Health Perspectives, 2020)
Where a name gives a salt, the structure may show the parent alone. Read-outs that look alike come from different tables or passages of the source.

Tests used:
[1] = test system: iCell endothelial cells (human iPSC-derived ECs); assay: High-content imaging cytotoxicity in iCell endothelial cells, 24 h; assay type: cell-based; details: Homo sapiens, Endothelial cell, 24 hr; for viability at 0.1 µM / activity at 0.1 µM: 0.10 µM
Method in brief: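 Readouts were vehicle-normalised and fitted to a four-parameter logistic model. POD was set at one SD beyond 0.5% DMSO control means, and 100 µM was assigned when no response was seen. Cells were monolayers of iCell endothelial cells imaged after 24 h compound exposure using nuclear, mitochondrial and calcein dyes.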

HUVECs = assay: Tube formation (tubulogenesis) assay in HUVECs, 18 h; assay type: cell-based, human; details: Homo sapiens, HUVEC, 18 h; for activity at 0.1 µM: 0.10 µM
Method in brief: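 HUVECs (passage 1–5) seeded on reduced-growth-factor basement membrane and exposed to compounds overnight at 37°C, 5% CO2, in 2× maintenance medium with 12.5 ng/mL VEGF; 0.5% DMSO vehicle. Calcein AM-stained tube networks imaged and analysed; vehicle-normalized readouts fit to four-parameter logistic, POD set at one SD of vehicle means.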

[2] = iPSC-EC, 0.00 µM control = 100.00, read-out: endo.cyto.24hr
[3] = iPSC-EC, 0.00 µM control = 100.00, read-out: endo.mito.24hr
[4] = iPSC-EC, 0.00 µM control = 100.00, read-out: endo.mitoint.24hr
[5] = iPSC-EC, 0.00 µM control = 100.00, read-out: endo.nma.24hr
[6] = iPSC-EC, 0.00 µM control = 100.00, read-out: endo.tc.24hrs
[7] = HUVECs, 0.00 µM = 100.00, read-out: huvec.mtl.18hr
[8] = HUVECs, 0.00 µM = 100.00, read-out: huvec.tlps.18hr
[9] = HUVECs, 0.00 µM = 100.00, read-out: huvec.tta.18hr
[10] = HUVECs, 0.00 µM = 100.00, read-out: huvec.ttl.18hr
[11] = endothelial cells (endo), cyto, read-out: POD endo.cyto.24hr
[12] = endothelial cells (endo), mito, read-out: POD endo.mito.24hr
[13] = endothelial cells (endo), mitoint, read-out: POD endo.mitoint.24hr
[14] = endothelial cells (endo), nma, read-out: POD endo.nma.24hr
[15] = endothelial cells (endo), tc, read-out: POD endo.tc.24hr
[16] = tube formation mtl, read-out: POD huvec.mtl.18hr
[17] = tube formation tlps, read-out: POD huvec.tlps.18hr
[18] = tube formation tta, read-out: POD huvec.tta.18hr
[19] = tube formation ttl, read-out: POD huvec.ttl.18hr

## Oc1ccc(-c2ccc(Cl)cc2)cc1 [4'-OH PCB3]
[1]; [2]
  viability at 0.01 µM: 96.3%
  viability at 0.1 µM: 95%
  viability at 1 µM: 99.8%
  viability at 10 µM: 104%
  viability at 100 µM: 39.7%
[1]; [3]
  activity at 0.01 µM: 96.6%
  activity at 0.1 µM: 95.4%
  activity at 1 µM: 99.9%
  activity at 10 µM: 105%
  activity at 100 µM: 40.3%
[1]; [4]
  activity at 0.01 µM: 113%
  activity at 0.1 µM: 105%
  activity at 1 µM: 108%
  activity at 10 µM: 119%
  activity at 100 µM: 91.2%
[1]; [5]
  activity at 0.01 µM: 100%
  activity at 0.1 µM: 98.9%
  activity at 1 µM: 97.4%
  activity at 10 µM: 96%
  activity at 100 µM: 101%
[1]; [6]
  viability at 0.01 µM: 96.3%
  viability at 0.1 µM: 95%
  viability at 1 µM: 99.8%
  viability at 10 µM: 104%
  viability at 100 µM: 69.7%
[1]; iPSC-EC, top concentration 100.00 µM, read-out: endo.cyto.24hr POD
  minimal effective concentration: 41.1 µM
[1]; iPSC-EC, top concentration 100.00 µM, read-out: endo.mito.24hr POD
  minimal effective concentration: 41.1 µM
[1]; iPSC-EC, top concentration 100.00 µM, read-out: endo.mitoint.24hr POD
  minimal effective concentration: 100 µM
[1]; iPSC-EC, top concentration 100.00 µM, read-out: endo.nma.24hr POD
  minimal effective concentration: 100 µM
[1]; iPSC-EC, top concentration 100.00 µM, read-out: endo.tc.24hrs POD
  minimal effective concentration: 52 µM
HUVECs; [7]
  activity at 0.01 µM: 101%
  activity at 0.1 µM: 94%
  activity at 1 µM: 93.7%
  activity at 10 µM: 72.2%
  activity at 100 µM: 76.3%
HUVECs; [8]
  activity at 0.01 µM: 106%
  activity at 0.1 µM: 89.7%
  activity at 1 µM: 76.2%
  activity at 10 µM: 66.1%
  activity at 100 µM: 34%
HUVECs; [9]
  activity at 0.01 µM: 113%
  activity at 0.1 µM: 88.3%
  activity at 1 µM: 98.5%
  activity at 10 µM: 68.8%
  activity at 100 µM: 11.6%
HUVECs; [10]
  activity at 0.01 µM: 119%
  activity at 0.1 µM: 93.3%
  activity at 1 µM: 102%
  activity at 10 µM: 71.7%
  activity at 100 µM: 8.84%
HUVECs; HUVECs, top concentration 100.00 µM, read-out: huvec.mtl.18hr POD
  minimal effective concentration: 1.21 µM
HUVECs; HUVECs, top concentration 100.00 µM, read-out: huvec.tlps.18hr POD
  minimal effective concentration: 0.51 µM
HUVECs; HUVECs, top concentration 100.00 µM, read-out: huvec.tta.18hr POD
  minimal effective concentration: 5.36 µM
HUVECs; HUVECs, top concentration 100.00 µM, read-out: huvec.ttl.18hr POD
  minimal effective concentration: 5.16 µM

## COc1ccc(-c2ccc(Cl)cc2)cc1 [4'-OMe-PCB 3, 4′-methoxy-4-chlorobiphenyl]
[1]; [11]
  minimal effective concentration: 100 µM
[1]; [12]
  minimal effective concentration: 100 µM
[1]; [13]
  minimal effective concentration: 20.5 µM
[1]; [14]
  minimal effective concentration: 100 µM
[1]; [15]
  minimal effective concentration: 100 µM
HUVECs; [16]
  minimal effective concentration: 7.13 µM
HUVECs; [17]
  minimal effective concentration: 49.5 µM
HUVECs; [18]
  minimal effective concentration: 8.82 µM
HUVECs; [19]
  minimal effective concentration: 7.82 µM

## O=S(=O)(O)Oc1ccc(-c2ccc(Cl)cc2)cc1 [4'-PCB 3 sulfate]
[1]; [11]
  minimal effective concentration: 100 µM
[1]; [12]
  minimal effective concentration: 100 µM
[1]; [13]
  minimal effective concentration: 100 µM
[1]; [14]
  minimal effective concentration: 100 µM
[1]; [15]
  minimal effective concentration: 100 µM
HUVECs; [16]
  minimal effective concentration: 11.2 µM
HUVECs; [17]
  minimal effective concentration: 100 µM
HUVECs; [18]
  minimal effective concentration: 25.4 µM
HUVECs; [19]
  minimal effective concentration: 100 µM

## Oc1cc(Cl)cc(-c2cccc(Cl)c2)c1 [5-OH-PCB 11]
[1]; [11]
  minimal effective concentration: 42.3 µM
[1]; [12]
  minimal effective concentration: 42.3 µM
[1]; [13]
  minimal effective concentration: 55 µM
[1]; [14]
  minimal effective concentration: 14.2 µM
[1]; [15]
  minimal effective concentration: 43.2 µM
HUVECs; [16]
  minimal effective concentration: 6.98 µM
HUVECs; [17]
  minimal effective concentration: 100 µM
HUVECs; [18]
  minimal effective concentration: 100 µM
HUVECs; [19]
  minimal effective concentration: 32.7 µM
